# Assays:
# Assay type in all cases: cell-based, mouse
# [1] = system: Ca^2+ channel in CA1 neurons; experiment: Ca2+ channel current (Ba2+ current) recording in CA1 neurons; details: 100 μM; depolarization −90 mV to −10 mV, 50 ms
# CA1 neurons [2] = experiment: Whole-cell current clamp recording of membrane potential
# Description: Next, whole-cell current clamp recordings were used to check the effect of SYR on the membrane potential of CA1 neurons.
# [3] = system: CA1 neurons (inhibitory synaptic transmission); experiment: Evoked IPSC (eIPSC) recording in CA1 neurons; details: 100 μM
# Description: A stimulating electrode was placed on a radiating layer or a pyramidal cell layer near the target cell. […] […] During eEPSC or eIPSC recording, series resistance and seal resistance were continuously observed using short hyperpolarization pulses (−5 mV, 50 ms). When the resistance was changed by more than 20% during recording, the data was discarded.
# SYR […] inhibitory synaptic transmission in CA1 neurons. […] There was no difference between the first eIPSC (t=−0.47, p>0.05) and the second eIPSC (t=−0.33, p>0.05) as measured before and after the application of SYR respectively.
# [4] = system: Schaffer collateral (SC)-CA1 synapse of the hippocampus; experiment: fEPSP recording in hippocampal SC-CA1 synapse (hippocampal slices); details: for first and second fEPSPs: paired pulse interval 100 ms
# Description: A hippocampus slice (400 μm thick) was prepared in a cold dissection buffer using a vibrating machine (Vibratome, Leica, Germany) and then a CA3 region of each slice was removed surgically immediately after the slice formation. In this connection, the cold dissection buffer contained sucrose 230 mM; NaHCO3 25 mM; KCl 2.5 mM; NaH2PO4 1.25 mM; D-glucose 10 mM; Na-ascorbic acid salt 1.3 mM; MgCl2 3 mM; CaCl2 0.5 mM, 95% O2/5% CO2 and had pH 7.4. The slice was recovered in a normal ACSF (artificial cerebrospinal fluid) for 1 hour and then maintained at room temperature (23 to 25° C.) until recording. […] All electrophysiological experiments were performed in a recording chamber while the samples were immersed in the solution in a manner described previously (Song et al., 2017). Signals were amplified using a MultiClamp 700B amplifier (Molecular Devices, CA, USA) at a cut-off frequency of 2.8 kHz and were measured with a Digidata 1440A interface (Molecular Devices) at a 10 kHz sampling frequency. Data were collected using pClamp 10.2 (Molecular Devices) software. The collected data were analyzed with a program created in the lab using Igor Pro (WaveMetrics, OR, USA). To record the field excitatory post-synaptic potential (fEPSP) in the hippocampal SC-CA1 synapse, hippocampal slices were placed in the recording chamber and perfused with ACSF while oxygen was fed continuously to the ACSF. The ACSF was maintained at a temperature of 29 to 30° C. using a heater for perfusion (SH-27B, Warner Instruments, CT, USA). A synapse response was induced by stimulation with a glass pipette (0.3 to 0.5 Mohm) every 20 seconds (0.05 Hz). The synapse response was recorded using a glass pipette (3 to 4 Mohm) filled with ACSF. The intensity of the stimulus was adjusted to produce a synapse response of about ⅓ of the maximum value thereof. The slices with unstable (10%) baseline records were excluded. To investigate the effect of syringaresinol (SYR) on the synaptic transmission, the field excitatory post-synaptic potential (fEPSP) of the Schaffer collateral (SC)-CA1 synapse of the hippocampus of adult mice (4 to 6 weeks of age) was measured. After confirming the stable baseline, different concentrations of SYR were applied thereto using the perfusion solution.
# hippocampal CA1 region = experiment: Picrotoxin-induced epilepsy activity in intact hippocampal slices; details: picrotoxin 50 μM
# Description: Selective inhibition of excitatory synaptic transmission rather than inhibitory synapse transmission means that SYR may change the balance between synapse excitation and inhibition in neurons. We checked whether this synapse regulation might inhibit epilepsy pathogenic activity caused by excessive excitement of the neural network. To model an epilepsy pathogenic neuron network in experimental conditions (in vitro), the hippocampal slice was prepared while the CA3 region was left. During recording, ACSF containing picrotoxin (50 μM) was perfused in intact hippocampal slices. […] Continuous picrotoxin perfusion (>20 min) discharged an epilepsy pathogenic excitation wave. This wave was characterized by a three to seven population spikes (PS) waveform of a decreasing amplitude (FIG. 7C).
# CA1 neurons [5] = experiment: Miniature EPSC (mEPSC) recording in CA1 neurons
# Description: (§1) A miniature EPSC (mEPSC) was measured at −70 mV with a pipette solution. In this connection, the pipette solution contained 110 mM K-gluconate, 20 mM KCl, 8 mM NaCl, 10 mM HEPES, 0.5 mM QX-314-C1, 4 mM Mg-ATP, 0.3 mM Na-GTP and 0.5 mM EGTA. The solution had pH 7.25 and 290 mOsm/kg. Voluntary action potentials and IPSCs were blocked by TTX (1 μM) and picrotoxin (50 μM), respectively. For mIPSC recording, the K-gluconate in the pipette solution was replaced with the KCl having the same number of moles as the K-gluconate.
# Next, the effect of SYR on miniature EPSC (mEPSC) in CA1 neurons was examined.
# [6] = system: CA1 neurons (inhibitory synaptic transmission); experiment: Miniature IPSC (mIPSC) recording in CA1 neurons
# Description: as §1
# The effect of SYR on the miniature IPSC (mIPSC) was checked.
# [7] = system: SC-CA1 synapse synaptic vesicle pool; experiment: Readily releasable pool (RRP) size by cumulative amplitude analysis, 20 Hz train; details: 100 μM; 80 stimuli at 20 Hz
# Description: Previous studies have shown that the secretion probability is regulated by the size of the readily releasable pool (RRP) of hippocampal neurons. Therefore, RRP was measured before and after treatment with SYR (100 μM). A high-frequency train (20 Hz) composed of more than 60 stimuli was prepared. 80 stimuli at 20 Hz was applied to completely remove RRP from the SC-CA1 synapse. RRP size was measured by cumulative amplitude analysis (Stevens and Williams, 2007; Wesseling and Lo, 2002). In the presence of AP-5 and picrotoxin, SYR inhibited AMPAR-EPSC (FIG. 5A and FIG. 5B). […] An extent by which RRP size is reduced was very close to an extent by which synapse is inhibited (FIG. 5B and FIG. 5F). […] This means that a decrease in RRP size may lead to the SYR-induced synapse decrease.
smiles,measurement,setting,value
"COc1cc(C2OCC3C(c4cc(OC)c(O)c(OC)c4)OCC23)cc(OC)c1O (stereo not shown) [SYR, syringaresinol]",Ba^2+ current mediated by the Ca^2+ channel,[1],rapidly reduced
same,membrane potential of CA1 neurons,CA1 neurons [2]; SYR 100 μM applied extracellularly,Significant hyperpolarization
same,resting membrane potential,CA1 neurons [2]; SYR 100 μM in the pipette solution,did not affect resting membrane potential
same,ratio of IPSC amplitude induced by paired-pulse stimulation (PPR),[3]; 100 ms interval,did not change
same,eIPSC amplitude (first and second),[3]; in presence of NBQX and AP-5,had no effect on eIPSC
same,paired-pulse ratio (PPR) of fEPSP,"[4]; 30 μM and 100 μM, interval 100 ms",gradually increased
same,first and second fEPSPs,[4]; 30 μM,significantly decreased
same,amplitude of fEPSP during SYR perfusion (1 h),"[4]; 100 μM, 1 h",rapidly decreased and then remained stable
same,"PPR before vs one hour after application, small inter-pulse interval","[4]; 100 μM, interval 200 ms",significant difference in PPR
same,"PPR before vs one hour after application, large inter-pulse interval","[4]; 100 μM, interval 500 ms",no difference in PPR
same,first and second fEPSPs,[4]; 100 μM,significantly decreased
same,inhibition at 500 µM,"[4]; Mus musculus, 500 μM of SYR, read-out: maximum inhibition of fEPSP",75.9 ± 1.6%
same,IC50,"[4]; Mus musculus, SC-CA1 synapse, hippocampal slice, bath perfusion, read-out: IC50 for decrease of slope and amplitude of fEPSP",90 µM
same,post-synaptic response (fEPSP),"[4]; high concentrations, >10 μM",decreased rapidly
same,effect on fEPSP,"[4]; low concentrations, 1 to 5 μM",did not affect fEPSP
same,PPR and fEPSP after washing the SYR with control solution,[4]; washout,slowly recovered to baseline
same,amplitude of first epilepsy pathological excitation wave (first PS),hippocampal CA1 region,decreased
same,area of the epilepsy pathological fEPSP (population spike),hippocampal CA1 region,decreased
same,epilepsy pathological excitation wave,hippocampal CA1 region,significantly inhibited
same,slope of fEPSP in epilepsy-induced hippocampal slice,hippocampal CA1 region,rapidly reduced
same,mEPSC amplitude,CA1 neurons [5],did not change
same,mEPSC frequency,CA1 neurons [5],did not change
same,amplitude of mIPSC,[6],did not affect
same,frequency of mIPSC,[6],did not affect
same,RRP size,[7],significant decrease

# Source: patent publication US11000501B2, “Composition for preventing or treating neurological and mental disorders, containing syringaresinol” (SEOUL NATIONAL UNIVERSITY R&DB FOUNDATION, priority 2016, dated 2021)
